From ChEMBL document CHEMBL3885881, “DrugMatrix”

Organism: Rattus norvegicus
Assay: DrugMatrix - Regimen: Daily Repeat
Format: toxicity, organism-based, Sprague-Dawley
Parameters: regimen Daily Repeat, gender Male, age 6-8 weeks
Conditions: in vivo, po, route oral GAVAGE, vehicle .5 % CMC; for ABSOLUTE BASOPHIL / BASOPHIL / EOSINOPHIL / ERYTHROCYTE COUNT / HEMATOCRIT / HEMOGLOBIN / LEUKOCYTE COUNT / LYMPHOCYTE / MEAN CORPUSCULAR HEMOGLOBIN / MEAN CORPUSCULAR HEMOGLOBIN CONCENTRATION / MEAN CORPUSCULAR VOLUME / MONOCYTE / NEUTROPHIL / PLATELET COUNT: tissue Blood; for ALANINE AMINOTRANSFERASE / ALKALINE PHOSPHATASE / ASPARTATE AMINOTRANSFERASE / BLOOD UREA NITROGEN / CHLORIDE / CHOLESTEROL / CREATINE PHOSPHOKINASE / CREATININE / GLUCOSE / PHOSPHORUS / POTASSIUM / SODIUM / TOTAL BILIRUBIN / TOTAL PROTEIN: tissue Plasma
[1] = 0 mg/kg, 72 h, dose level Control, time 3 day
[2] = 0 mg/kg, 120 h, dose level Control, time 5 day
[3] = 20 mg/kg, 72 h, dose level Low, time 3 day
[4] = 20 mg/kg, 120 h, dose level Low, time 5 day
[5] = 89 mg/kg, 72 h, dose level High, time 3 day
[6] = 89 mg/kg, 120 h, dose level High, time 5 day

CC(C(=O)O)c1ccc2oc(-c3ccc(Cl)cc3)nc2c1 (configuration not stated) [BENOXAPROFEN]
ABSOLUTE BASOPHIL [1]: 16.7 cells/µL | BASOPHIL [1]: 0.17% | EOSINOPHIL [1]: 0.62% | ERYTHROCYTE COUNT [1]: 6.55 x10E6/uL | HEMATOCRIT [1]: 42% | HEMOGLOBIN [1]: 13.48 G/DL | LEUKOCYTE COUNT [1]: 8.79 x10E3/uL | LYMPHOCYTE [1]: 76.98% | MEAN CORPUSCULAR HEMOGLOBIN [1]: 20.57 pg | MEAN CORPUSCULAR HEMOGLOBIN CONCENTRATION [1]: 32.08 G/DL | MEAN CORPUSCULAR VOLUME [1]: 64.1 fL | MONOCYTE [1]: 2.12% | NEUTROPHIL [1]: 19% | PLATELET COUNT [1]: 1432.17 x10E3/uL | ALANINE AMINOTRANSFERASE [1]: 42.83 u/L | ALKALINE PHOSPHATASE [1]: 328.5 u/L | ASPARTATE AMINOTRANSFERASE [1]: 78.33 u/L | BLOOD UREA NITROGEN [1]: 14.5 mg/dL | CHLORIDE [1]: 104.5 MEQ/L | CHOLESTEROL [1]: 78.67 mg/dL | CREATINE PHOSPHOKINASE [1]: 282.33 u/L | CREATININE [1]: 0.25 mg/dL | GLUCOSE [1]: 173.67 mg/dL | PHOSPHORUS [1]: 12.83 mg/dL | POTASSIUM [1]: 6.7 MEQ/L | SODIUM [1]: 145.83 MEQ/L | TOTAL BILIRUBIN [1]: 0.4 mg/dL | TOTAL PROTEIN [1]: 5.93 G/DL | ABSOLUTE BASOPHIL [2]: 28 cells/µL | BASOPHIL [2]: 0.26% | EOSINOPHIL [2]: 0.44% | ERYTHROCYTE COUNT [2]: 6.99 x10E6/uL | HEMATOCRIT [2]: 45.12% | HEMOGLOBIN [2]: 14.26 G/DL | LEUKOCYTE COUNT [2]: 9.42 x10E3/uL | LYMPHOCYTE [2]: 79.92% | MEAN CORPUSCULAR HEMOGLOBIN [2]: 20.44 pg | MEAN CORPUSCULAR HEMOGLOBIN CONCENTRATION [2]: 31.62 G/DL | MEAN CORPUSCULAR VOLUME [2]: 64.6 fL | MONOCYTE [2]: 2.2% | NEUTROPHIL [2]: 16.14% | PLATELET COUNT [2]: 1062.2 x10E3/uL | ALANINE AMINOTRANSFERASE [2]: 44 u/L | ALKALINE PHOSPHATASE [2]: 342.6 u/L | ASPARTATE AMINOTRANSFERASE [2]: 74.17 u/L | BLOOD UREA NITROGEN [2]: 13 mg/dL | CHLORIDE [2]: 103 MEQ/L | CHOLESTEROL [2]: 72.83 mg/dL | CREATINE PHOSPHOKINASE [2]: 184.67 u/L | CREATININE [2]: 0.47 mg/dL | GLUCOSE [2]: 168.17 mg/dL | PHOSPHORUS [2]: 12.27 mg/dL | POTASSIUM [2]: 6.98 MEQ/L | SODIUM [2]: 147 MEQ/L | TOTAL BILIRUBIN [2]: 0.65 mg/dL | TOTAL PROTEIN [2]: 6.23 G/DL | ABSOLUTE BASOPHIL [3]: 20 cells/µL | BASOPHIL [3]: 0.23% | EOSINOPHIL [3]: 0.43% | ERYTHROCYTE COUNT [3]: 6.67 x10E6/uL | HEMATOCRIT [3]: 42.8% | HEMOGLOBIN [3]: 13.83 G/DL | LEUKOCYTE COUNT [3]: 10.28 x10E3/uL | LYMPHOCYTE [3]: 78.07% | MEAN CORPUSCULAR HEMOGLOBIN [3]: 20.73 pg | MEAN CORPUSCULAR HEMOGLOBIN CONCENTRATION [3]: 32.33 G/DL | MEAN CORPUSCULAR VOLUME [3]: 64.2 fL | MONOCYTE [3]: 2.7% | NEUTROPHIL [3]: 16.57% | PLATELET COUNT [3]: 1248 x10E3/uL | ALANINE AMINOTRANSFERASE [3]: 44.67 u/L | ALKALINE PHOSPHATASE [3]: 316.67 u/L | ASPARTATE AMINOTRANSFERASE [3]: 75.67 u/L | BLOOD UREA NITROGEN [3]: 13.33 mg/dL | CHLORIDE [3]: 104.33 MEQ/L | CHOLESTEROL [3]: 64.33 mg/dL | CREATINE PHOSPHOKINASE [3]: 179 u/L | CREATININE [3]: 0.33 mg/dL | GLUCOSE [3]: 176.67 mg/dL | PHOSPHORUS [3]: 12.2 mg/dL | POTASSIUM [3]: 6.37 MEQ/L | SODIUM [3]: 146.33 MEQ/L | TOTAL BILIRUBIN [3]: 0.37 mg/dL | TOTAL PROTEIN [3]: 5.7 G/DL | ABSOLUTE BASOPHIL [4]: 56.7 cells/µL | BASOPHIL [4]: 0.6% | EOSINOPHIL [4]: 0.53% | ERYTHROCYTE COUNT [4]: 7.47 x10E6/uL | HEMATOCRIT [4]: 48.6% | HEMOGLOBIN [4]: 15.37 G/DL | LEUKOCYTE COUNT [4]: 8.81 x10E3/uL | LYMPHOCYTE [4]: 79.3% | MEAN CORPUSCULAR HEMOGLOBIN [4]: 20.53 pg | MEAN CORPUSCULAR HEMOGLOBIN CONCENTRATION [4]: 31.57 G/DL | MEAN CORPUSCULAR VOLUME [4]: 65.03 fL | MONOCYTE [4]: 2.53% | NEUTROPHIL [4]: 15.73% | PLATELET COUNT [4]: 1097 x10E3/uL | ALKALINE PHOSPHATASE [4]: 357.67 u/L | ASPARTATE AMINOTRANSFERASE [4]: 65 u/L | BLOOD UREA NITROGEN [4]: 13.33 mg/dL | CHLORIDE [4]: 104.67 MEQ/L | CHOLESTEROL [4]: 59.33 mg/dL | CREATINE PHOSPHOKINASE [4]: 158.33 u/L | CREATININE [4]: 0.43 mg/dL | GLUCOSE [4]: 175.33 mg/dL | PHOSPHORUS [4]: 12.03 mg/dL | POTASSIUM [4]: 7.37 MEQ/L | SODIUM [4]: 150.67 MEQ/L | TOTAL BILIRUBIN [4]: 0.33 mg/dL | TOTAL PROTEIN [4]: 6.43 G/DL | ABSOLUTE BASOPHIL [5]: 46.7 cells/µL | BASOPHIL [5]: 0.87% | EOSINOPHIL [5]: 0.43% | ERYTHROCYTE COUNT [5]: 5.74 x10E6/uL | HEMATOCRIT [5]: 35.5% | HEMOGLOBIN [5]: 11.63 G/DL | LEUKOCYTE COUNT [5]: 4.56 x10E3/uL | LYMPHOCYTE [5]: 64.07% | MEAN CORPUSCULAR HEMOGLOBIN [5]: 20.27 pg | MEAN CORPUSCULAR HEMOGLOBIN CONCENTRATION [5]: 32.8 G/DL | MEAN CORPUSCULAR VOLUME [5]: 61.93 fL | MONOCYTE [5]: 4.3% | NEUTROPHIL [5]: 29.23% | PLATELET COUNT [5]: 1116 x10E3/uL | ALANINE AMINOTRANSFERASE [5]: 30.67 u/L | ALKALINE PHOSPHATASE [5]: 216.33 u/L | ASPARTATE AMINOTRANSFERASE [5]: 71 u/L | BLOOD UREA NITROGEN [5]: 13 mg/dL | CHLORIDE [5]: 105 MEQ/L | CHOLESTEROL [5]: 81 mg/dL | CREATINE PHOSPHOKINASE [5]: 293 u/L | CREATININE [5]: 0.37 mg/dL | GLUCOSE [5]: 179 mg/dL | PHOSPHORUS [5]: 11.33 mg/dL | POTASSIUM [5]: 6.47 MEQ/L | SODIUM [5]: 142.33 MEQ/L | TOTAL BILIRUBIN [5]: 0.33 mg/dL | TOTAL PROTEIN [5]: 4.93 G/DL | ABSOLUTE BASOPHIL [6]: 80 cells/µL | BASOPHIL [6]: 0.75% | EOSINOPHIL [6]: 0.5% | ERYTHROCYTE COUNT [6]: 3.39 x10E6/uL | HEMATOCRIT [6]: 21.15% | HEMOGLOBIN [6]: 6.75 G/DL | LEUKOCYTE COUNT [6]: 9.48 x10E3/uL | LYMPHOCYTE [6]: 62% | MEAN CORPUSCULAR HEMOGLOBIN [6]: 20.05 pg | MEAN CORPUSCULAR HEMOGLOBIN CONCENTRATION [6]: 32.38 G/DL | MEAN CORPUSCULAR VOLUME [6]: 61.98 fL | MONOCYTE [6]: 3.5% | NEUTROPHIL [6]: 36% | PLATELET COUNT [6]: 1019.25 x10E3/uL | ALANINE AMINOTRANSFERASE [6]: 205.75 u/L | ALKALINE PHOSPHATASE [6]: 329.75 u/L | ASPARTATE AMINOTRANSFERASE [6]: 292.5 u/L | BLOOD UREA NITROGEN [6]: 38.75 mg/dL | CHLORIDE [6]: 103.5 MEQ/L | CHOLESTEROL [6]: 101 mg/dL | CREATINE PHOSPHOKINASE [6]: 255.75 u/L | CREATININE [6]: 0.33 mg/dL | GLUCOSE [6]: 163.25 mg/dL | PHOSPHORUS [6]: 10.22 mg/dL | POTASSIUM [6]: 5.38 MEQ/L | SODIUM [6]: 143.25 MEQ/L | TOTAL BILIRUBIN [6]: 0.42 mg/dL | TOTAL PROTEIN [6]: 4.65 G/DL
